Like-named read-outs stand apart in the source and are kept apart here.
What was measured:
[1] = target: T1, WT ITK (His6-tagged human wild-type ITK kinase domain) (Homo sapiens, UniProt Q08881); assay: ADP-Glo kinase assay; type: biochemical
T1 construct: Ni-NTA, Q Sepharose, Superdex 200
T1 sequence (Q08881 357-620 limits assumed): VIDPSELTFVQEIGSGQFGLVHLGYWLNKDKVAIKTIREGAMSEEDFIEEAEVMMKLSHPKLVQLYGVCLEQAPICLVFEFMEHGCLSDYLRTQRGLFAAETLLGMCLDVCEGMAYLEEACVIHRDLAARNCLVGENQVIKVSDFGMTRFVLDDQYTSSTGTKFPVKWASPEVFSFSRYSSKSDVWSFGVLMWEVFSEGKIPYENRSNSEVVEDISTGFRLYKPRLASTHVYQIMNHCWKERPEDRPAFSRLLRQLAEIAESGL
Description: ADP-Glo kinase assay on WT ITK (His6-tagged human wild-type ITK kinase domain)

[2] = target: T1, WT ITK (His6-tagged human wild-type ITK kinase domain); assay: SPR (Biacore, NTA capture coupling); type: binding
LCK = LCK (Homo sapiens, UniProt P06239); assay: DiscoveRx KINOMEscan; details: read-out: Percentage of control binding / J-95
Sequence of LCK (P06239 2-509): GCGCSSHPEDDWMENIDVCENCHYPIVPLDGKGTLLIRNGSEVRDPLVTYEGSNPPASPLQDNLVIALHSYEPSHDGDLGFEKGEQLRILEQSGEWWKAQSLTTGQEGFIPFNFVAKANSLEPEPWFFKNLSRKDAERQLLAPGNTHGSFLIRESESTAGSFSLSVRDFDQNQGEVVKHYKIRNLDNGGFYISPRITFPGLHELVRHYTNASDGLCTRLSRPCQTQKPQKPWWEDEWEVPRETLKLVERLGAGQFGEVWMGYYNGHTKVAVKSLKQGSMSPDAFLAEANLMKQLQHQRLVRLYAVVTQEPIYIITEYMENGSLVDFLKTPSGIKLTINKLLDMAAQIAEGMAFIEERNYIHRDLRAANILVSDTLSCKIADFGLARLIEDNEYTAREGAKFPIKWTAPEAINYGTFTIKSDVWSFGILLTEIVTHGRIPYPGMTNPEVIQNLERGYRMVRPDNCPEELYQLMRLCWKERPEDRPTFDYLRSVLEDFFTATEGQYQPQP
Description: DiscoveRx KINOMEscan on LCK

[3] = target: T1, WT ITK (His6-tagged human wild-type ITK kinase domain); assay: biochemical kinase inhibition assay
HCK = HCK (Homo sapiens, UniProt P08631); assay: DiscoveRx KINOMEscan; details: read-out: Percentage of control binding / J-95
Sequence of HCK (P08631 2-526): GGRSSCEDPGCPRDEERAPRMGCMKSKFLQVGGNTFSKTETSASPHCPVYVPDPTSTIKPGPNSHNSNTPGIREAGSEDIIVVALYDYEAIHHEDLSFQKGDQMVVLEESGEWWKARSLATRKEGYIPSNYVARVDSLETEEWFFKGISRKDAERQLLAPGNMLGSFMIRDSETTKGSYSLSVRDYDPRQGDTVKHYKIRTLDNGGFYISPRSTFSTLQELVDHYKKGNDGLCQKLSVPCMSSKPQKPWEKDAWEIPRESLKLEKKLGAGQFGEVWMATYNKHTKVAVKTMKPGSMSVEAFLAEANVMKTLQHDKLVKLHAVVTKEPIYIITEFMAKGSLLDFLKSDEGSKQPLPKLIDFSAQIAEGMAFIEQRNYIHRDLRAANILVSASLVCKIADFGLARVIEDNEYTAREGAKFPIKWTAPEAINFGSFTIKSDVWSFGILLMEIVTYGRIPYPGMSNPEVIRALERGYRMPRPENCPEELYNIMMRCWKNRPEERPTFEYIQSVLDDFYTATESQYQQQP
Description: DiscoveRx KINOMEscan on HCK

CLK1 = CLK1 (Homo sapiens, UniProt P49759); assay: DiscoveRx KINOMEscan; details: read-out: Percentage of control binding / J-31
Sequence of CLK1 (P49759 whole entry): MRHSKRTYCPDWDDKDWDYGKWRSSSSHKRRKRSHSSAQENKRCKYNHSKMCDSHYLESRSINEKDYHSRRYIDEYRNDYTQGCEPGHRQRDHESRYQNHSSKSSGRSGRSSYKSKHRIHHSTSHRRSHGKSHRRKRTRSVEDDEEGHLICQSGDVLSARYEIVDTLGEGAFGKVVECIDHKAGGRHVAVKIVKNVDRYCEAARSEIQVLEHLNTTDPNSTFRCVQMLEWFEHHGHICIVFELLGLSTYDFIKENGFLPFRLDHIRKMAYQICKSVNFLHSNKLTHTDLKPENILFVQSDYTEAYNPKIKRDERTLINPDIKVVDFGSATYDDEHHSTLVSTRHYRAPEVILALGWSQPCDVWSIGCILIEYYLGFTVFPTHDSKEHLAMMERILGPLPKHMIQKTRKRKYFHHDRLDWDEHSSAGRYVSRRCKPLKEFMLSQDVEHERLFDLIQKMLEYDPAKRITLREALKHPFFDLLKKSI
Description: DiscoveRx KINOMEscan on CLK1

SMILES | IC50 [1] [µM] | Kd ([2]; read-out: K D) [µM] | further results
CC(C)Oc1ccc2cccc(-n3cc(NC(N)=O)c(C(N)=O)n3)c2c1 [C, Pfizer compound 9] | 0.024 | 0.025 | –
CC(=O)N1CCCC(n2nc(-c3cccc(C(=O)Nc4ccc(C(C)C)cc4)c3)c3c(N)ncnc32)C1 (centres unmarked) [E, Derivative of D] | 0.46 | 1.1 | –
CCOC(=O)/C=C1\CC(=O)Nc2cc(C)c(C)cc2N1 [J-95] | – | – | remaining binding at 20 µM (LCK): 29%; IC50 [3]: 3.3 µM; Kd [2]: 1 µM; remaining binding at 20 µM (HCK): 33%
CCc1ccc2nc(Nc3cc(Cc4ccccc4)nc(N[C@H]4CC[C@H](O)CC4)n3)sc2c1 [G, GSK compound 13] | 0.0035 | 0.0036 | –
COc1cc(C)c(Sc2cnc(NC(=O)c3ccc(CNC(C)C(C)(C)C)cc3)s2)cc1C(=O)N1CCN(C(C)=O)CC1 (centres unmarked) [A, BMS-509744] | 0.0025 | 0.0013 | –
COc1ccc(OCCn2c(NC(=O)c3ccco3)nc3ccccc32)cc1 [J-31] | – | – | IC50 [3]: 5.5 µM; Kd [2]: 3.4 µM; remaining binding at 50 µM (CLK1): 21%
COc1cc(C)c(Sc2cnc(NC(C)=O)s2)cc1C(=O)N1CCN(C(C)=O)CC1 [B, Derivative of A] | 0.26 | 0.075 | –

Source: paper PMC6120236 (FEBS Open Bio, 2018)
